Data as given in patent US20260007758A1, “SO[…]-2 RECEPTOR (SST2R) NON-PEPTIDE DRUG CONJUGATES AND USES THEREOF” (Crinetics Pharmaceuticals, Inc., priority 2024, published 2026).

Experiments:
Assay type in all cases: cell-based
[1] = tested on: NCI-H524 human small cell lung cancer cells; assay: H524 assay: inhibition of cell proliferation (CellTiter Glo); conditions: 2 h treatment, washout, additional 70 h incubation
Method in brief: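 Proliferation was measured by CellTiter Glo 70 h after a washout that followed a 2 h pulse of NDC. Doses were an 11-point, two-fold dilution series from 1 uM. IC50 was fitted with a four-parameter model to luminescence-based % inhibition relative to control cells.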

[2] = molecular target: T1, human somatostatin receptor subtype 2 (Homo sapiens, UniProt P30874); assay: Functional assay for SSTR2 agonists (HTRF cAMP); conditions: CHO-K1 cells stably expressing human SST2; NKH477-stimulated cAMP; 20 min at 37 C; read-out: hSST2 cAMP Avg EC50
T1 construct: expressed in transfected cells
Method in brief: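 Agonist activity read as fall in intracellular cAMP: HTRF 665/620 nm ratio regressed to a cAMP standard curve, EC50 fitted. Stable human SSTR2 CHO-K1 cells exposed 20 min at 37 °C to compound, final concentrations typically 0-10,000 nM.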

SST2 = molecular target: T2, SST2 (Homo sapiens, UniProt P30874); assay: PathHunter CHO-K1 SST2 Internalization Assay; conditions: PathHunter CHO-K1 SST2 cells; 90 min at 37 C; luminescence; read-out: Internalization EC50
T2 construct: host or cells: PathHunter CHO-K1 SST2 cells
Method in brief: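 Four-parameter nonlinear fits of background-corrected luminescence (duplicate means) gave IC50s. NDCs were serially diluted 1:3 over 11 points from a 10 uM final top concentration and incubated 90 min at 37 C with human SST2 CHO-K1 cells plated 48 h earlier at 2500/well. Beta-Glo read-out developed 60 min at RT.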

T1 sequence (P30874 whole entry): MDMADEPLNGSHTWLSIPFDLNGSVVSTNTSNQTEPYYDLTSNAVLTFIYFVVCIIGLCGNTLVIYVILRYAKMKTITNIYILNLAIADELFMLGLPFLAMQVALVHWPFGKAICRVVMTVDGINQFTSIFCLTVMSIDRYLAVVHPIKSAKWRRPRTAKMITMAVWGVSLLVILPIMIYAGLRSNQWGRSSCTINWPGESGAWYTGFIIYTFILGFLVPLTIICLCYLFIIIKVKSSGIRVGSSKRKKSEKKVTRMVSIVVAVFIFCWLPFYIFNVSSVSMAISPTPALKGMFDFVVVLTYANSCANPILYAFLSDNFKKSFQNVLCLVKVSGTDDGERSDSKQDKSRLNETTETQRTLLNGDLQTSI
T2 sequence (P30874 whole entry): as above

Structure (SMILES) | EC50 [1] [nM] | EC50 [2] [nM] | EC50 (SST2) [nM]
CC[C@H](C)[C@@H]([C@@H](CC(=O)N1CCC[C@H]1[C@H](OC)[C@@H](C)C(=O)N[C@H](C)[C@@H](O)c1ccccc1)OC)N(C)C(=O)[C@@H](NC(=O)[C@H](C(C)C)N(C)C(=O)OCc1ccc(NC(=O)[C@H](CCCNC(N)=O)NC(=O)[C@@H](NC(=O)[C@H](CCC(=O)O)NC(=O)CCOCCC(=O)NCCNc2ncc(-c3cc(C)cc(F)c3)c(N3CCC(N)CC3)c2-c2nc3ccc(Cl)cc3[nH]2)C(C)C)cc1C(=O)N1CC(N)C1)C(C)C [Compound 91] | 1000 | 0.46 | 2.5
CC[C@H](C)[C@@H]([C@@H](CC(=O)N1CCC[C@H]1[C@H](OC)[C@@H](C)C(=O)N[C@H](C)[C@@H](O)c1ccccc1)OC)N(C)C(=O)[C@@H](NC(=O)[C@H](C(C)C)N(C)C(=O)OCc1ccc(NC(=O)[C@H](CCCNC(N)=O)NC(=O)[C@@H](NC(=O)C[C@@H](N)C(=O)NCCOCCC(=O)NCCNc2ncc(-c3cc(C)cc(F)c3)c(N3CCC(N)CC3)c2-c2nc3ccc(Cl)cc3[nH]2)C(C)C)c(O[C@@H]2O[C@H](C(=O)O)[C@@H](O)[C@H](O)[C@H]2O)c1)C(C)C [Compound 92] | 680 | 0.2 | 2.5
CC[C@H](C)[C@@H]([C@@H](CC(=O)N1CCC[C@H]1[C@H](OC)[C@@H](C)C(=O)N[C@H](C)[C@@H](O)c1ccccc1)OC)N(C)C(=O)[C@@H](NC(=O)[C@H](C(C)C)N(C)C(=O)OCc1ccc(NC(=O)[C@H](C)NC(=O)[C@@H](NC(=O)CCOCCN2CCC(C(=O)NCCNc3ncc(-c4cc(C)cc(F)c4)c(N4CCC(N)CC4)c3-c3nc4ccc(Cl)cc4[nH]3)CC2)C(C)C)c(O[C@@H]2O[C@H](C(=O)O)[C@@H](O)[C@H](O)[C@H]2O)c1)C(C)C [Compound 93] | 120 | 0.28 | 33
CC[C@H](C)[C@@H]([C@@H](CC(=O)N1CCC[C@H]1[C@H](OC)[C@@H](C)C(=O)N[C@H](C)[C@@H](O)c1ccccc1)OC)N(C)C(=O)[C@@H](NC(=O)[C@H](C(C)C)N(C)C(=O)OCc1ccc(NC(=O)[C@H](C)NC(=O)[C@@H](NC(=O)CCOCCC(=O)NCCNc2ncc(-c3cc(C)cc(F)c3)c(N3CCC(N)CC3)c2-c2nc3cc(F)c(F)cc3[nH]2)C(C)C)c(O[C@@H]2O[C@H](C(=O)O)[C@@H](O)[C@H](O)[C@H]2O)c1)C(C)C [Compound 108] | 52 | 0.18 | 8.2
CC[C@H](C)[C@@H]([C@@H](CC(=O)N1CCC[C@H]1[C@H](OC)[C@@H](C)C(=O)N[C@H](C)[C@@H](O)c1ccccc1)OC)N(C)C(=O)[C@@H](NC(=O)[C@H](C(C)C)N(C)C(=O)OCc1ccc(NC(=O)[C@H](C)NC(=O)[C@@H](NC(=O)CCOCCC(=O)NCCNc2ncc(-c3cc(C)cc(F)c3)c(N3CCC(N)CC3)c2-c2nc3c(F)c(F)ccc3[nH]2)C(C)C)c(O[C@@H]2O[C@H](C(=O)O)[C@@H](O)[C@H](O)[C@H]2O)c1)C(C)C [Compound 109] | 200 | 1.1 | 35
CC[C@H](C)[C@@H]([C@@H](CC(=O)N1CCC[C@H]1[C@H](OC)[C@@H](C)C(=O)N[C@H](C)[C@@H](O)c1ccccc1)OC)N(C)C(=O)[C@@H](NC(=O)[C@H](C(C)C)N(C)C(=O)OCc1ccc(NC(=O)[C@H](CCCNC(N)=O)NC(=O)[C@@H](NC(=O)CCOCCC(=O)NCCNc2ncc(-c3cc(C)cc(F)c3)c(N3CCC(N)CC3)c2-c2nc3c(F)c(F)ccc3[nH]2)C(C)C)c(O[C@@H]2O[C@H](C(=O)O)[C@@H](O)[C@H](O)[C@H]2O)c1)C(C)C [Compound 110] | 120 | 1 | 23
CC[C@H](C)[C@@H]([C@@H](CC(=O)N1CCC[C@H]1[C@H](OC)[C@@H](C)C(=O)N[C@H](C)[C@@H](O)c1ccccc1)OC)N(C)C(=O)[C@@H](NC(=O)[C@H](C(C)C)N(C)C(=O)OCc1ccc(NC(=O)[C@H](C)NC(=O)[C@@H](NC(=O)CN(C)C(=O)CCOCCC(=O)NCCNc2ncc(-c3cc(C)cc(F)c3)c(N3CCC(N)CC3)c2-c2nc3ccc(Cl)cc3[nH]2)C(C)C)c(O[C@@H]2O[C@H](C(=O)O)[C@@H](O)[C@H](O)[C@H]2O)c1)C(C)C [Compound 111] | 19 | 0.046 | 8.7
CC[C@H](C)[C@@H]([C@@H](CC(=O)N1CCC[C@H]1[C@H](OC)[C@@H](C)C(=O)N[C@H](C)[C@@H](O)c1ccccc1)OC)N(C)C(=O)[C@@H](NC(=O)[C@H](C(C)C)N(C)C(=O)OCc1ccc(NC(=O)[C@H](C)NC(=O)[C@@H](NC(=O)CCOCCOCCOCCOCCC(=O)NCCNc2ncc(-c3cc(C)cc(F)c3)c(N3CCC(N)CC3)c2-c2cc3ccc(Cl)cc3[nH]2)C(C)C)c(O[C@@H]2O[C@H](C(=O)O)[C@@H](O)[C@H](O)[C@H]2O)c1)C(C)C [Compound 112] | 10 | 0.12 | 8.4
CC[C@H](C)[C@@H]([C@@H](CC(=O)N1CCC[C@H]1[C@H](OC)[C@@H](C)C(=O)N[C@H](C)[C@@H](O)c1ccccc1)OC)N(C)C(=O)[C@@H](NC(=O)[C@H](C(C)C)N(C)C(=O)OCc1ccc(NC(=O)[C@H](C)NC(=O)[C@@H](NC(=O)CCOCCC(=O)NCCNc2ncc(-c3cc(C)cc(F)c3)c(N3CC[C@H]4NCCO[C@@H]4C3)c2-c2nc3ccc(Cl)cc3[nH]2)C(C)C)c(O[C@@H]2O[C@H](C(=O)O)[C@@H](O)[C@H](O)[C@H]2O)c1)C(C)C [Compound 113] | 2000 | 110 | 1300
CC[C@H](C)[C@@H]([C@@H](CC(=O)N1CCC[C@H]1[C@H](OC)[C@@H](C)C(=O)N[C@H](C)[C@@H](O)c1ccccc1)OC)N(C)C(=O)[C@@H](NC(=O)[C@H](C(C)C)N(C)C(=O)OCc1ccc(NC(=O)[C@H](C)NC(=O)[C@@H](NC(=O)CCOCCC(=O)NCCNc2ncc(-c3cc(C)cc(F)c3)c(N3CC[C@H]4NCCO[C@@H]4C3)c2-c2nc3c(F)cc(F)cc3[nH]2)C(C)C)c(O[C@@H]2O[C@H](C(=O)O)[C@@H](O)[C@H](O)[C@H]2O)c1)C(C)C [Compound 114] | 4600 | 85 | 850
CC[C@H](C)[C@@H]([C@@H](CC(=O)N1CCC[C@H]1[C@H](OC)[C@@H](C)C(=O)N[C@H](C)[C@@H](O)c1ccccc1)OC)N(C)C(=O)[C@@H](NC(=O)[C@H](C(C)C)N(C)C(=O)OCc1ccc(NC(=O)[C@H](C)NC(=O)[C@@H](NC(=O)CCOCCC(=O)NCCNc2ncc(-c3cc(C)cc(F)c3)c(N3CCC(N)CC3)c2-c2cc3ccc(Cl)cc3[nH]2)C(C)C)c(O[C@@H]2O[C@H](C(=O)O)[C@@H](O)[C@H](O)[C@H]2O)c1)C(C)C [Compound 115] | 5.1 | 0.075 | 5.9
CC[C@H](C)[C@@H]([C@@H](CC(=O)N1CCC[C@H]1[C@H](OC)[C@@H](C)C(=O)N[C@H](C)[C@@H](O)c1ccccc1)OC)N(C)C(=O)[C@@H](NC(=O)[C@H](C(C)C)N(C)C(=O)OCc1ccc(NC(=O)[C@H](C)NC(=O)[C@@H](NC(=O)CCOCCC(=O)NCCNc2ncc(-c3cc(C)cc(F)c3)c(N3CCC(N)CC3)c2-c2cc3ccc(F)cc3[nH]2)C(C)C)c(O[C@@H]2O[C@H](C(=O)O)[C@@H](O)[C@H](O)[C@H]2O)c1)C(C)C [Compound 116] | 21 | 0.19 | 14
CC[C@H](C)[C@@H]([C@@H](CC(=O)N1CCC[C@H]1[C@H](OC)[C@@H](C)C(=O)N[C@H](C)[C@@H](O)c1ccccc1)OC)N(C)C(=O)[C@@H](NC(=O)[C@H](C(C)C)N(C)C(=O)OCc1ccc(NC(=O)[C@H](C)NC(=O)[C@@H](NC(=O)CCOCCC(=O)NCCNc2ncc(-c3cc(C)cc(F)c3)c(N3CCC(N)CC3)c2-c2cc3ccc(OC)cc3[nH]2)C(C)C)c(O[C@@H]2O[C@H](C(=O)O)[C@@H](O)[C@H](O)[C@H]2O)c1)C(C)C [Compound 117] | 58 | 0.46 | 19
CC[C@H](C)[C@@H]([C@@H](CC(=O)N1CCC[C@H]1[C@H](OC)[C@@H](C)C(=O)N[C@H](C)[C@@H](O)c1ccccc1)OC)N(C)C(=O)[C@@H](NC(=O)[C@H](C(C)C)N(C)C(=O)OCc1ccc(NC(=O)[C@H](CCCNC(N)=O)NC(=O)[C@@H](NC(=O)CN(C)C(=O)CCOCCC(=O)NCCNc2ncc(-c3cc(C)cc(F)c3)c(N3CCC(N)CC3)c2-c2nc3ccc(Cl)cc3[nH]2)C(C)C)c(O[C@@H]2O[C@H](C(=O)O)[C@@H](O)[C@H](O)[C@H]2O)c1)C(C)C [Compound 118] | 22 | 0.24 | 9.3
CC[C@H](C)[C@@H]([C@@H](CC(=O)N1CCC[C@H]1[C@H](OC)[C@@H](C)C(=O)N[C@H](C)[C@@H](O)c1ccccc1)OC)N(C)C(=O)[C@@H](NC(=O)[C@H](C(C)C)N(C)C(=O)OCc1ccc(NC(=O)[C@H](C)NC(=O)[C@@H](NC(=O)CCOCCC(=O)NCCNc2ncc(-c3cc(C)cc(F)c3)c(N3CCC(N)CC3)c2-c2cc3ccc(C#N)cc3[nH]2)C(C)C)c(O[C@@H]2O[C@H](C(=O)O)[C@@H](O)[C@H](O)[C@H]2O)c1)C(C)C [Compound 119] | 34 | 0.11 | 11
CC[C@H](C)[C@@H]([C@@H](CC(=O)N1CCC[C@H]1[C@H](OC)[C@@H](C)C(=O)N[C@H](C)[C@@H](O)c1ccccc1)OC)N(C)C(=O)[C@@H](NC(=O)[C@H](C(C)C)N(C)C(=O)OCc1ccc(NC(=O)[C@H](C)NC(=O)[C@@H](NC(=O)C[C@@H](N)C(=O)NCCOCCC(=O)NCCNc2ncc(-c3cc(C)cc(F)c3)c(N3CCC(NC)CC3)c2-c2nc3ccc(Cl)cc3[nH]2)C(C)C)c(O[C@@H]2O[C@H](C(=O)O)[C@@H](O)[C@H](O)[C@H]2O)c1)C(C)C [Compound 120] | 20 | 0.088 | 5.2
